Laboratory results: patent publication US20090123501A1, “INHIBITION OF THE SH2-DOMAIN CONTAINING PROTEIN TYR-PHOSPHATASE, SHP-1, TO ENHANCE VACCINES” (Baylor College of Medicine, priority 2007, published 2009)

Assays:
H-2K^b [1] = target: T1, H-2K^b (Mus musculus, UniProt P01901); assay: MHC class I surface stabilization assay on RMA-S cells, H-2Kb; format: binding; conditions: RMA-S cells pulsed with peptide overnight, flow cytometry
T1 construct: surface stabilization assay using the TAP1 deficient cell line RMA-S; endogenous in cells; host or cells: RMA-S
T1 sequence (P01901 22-369): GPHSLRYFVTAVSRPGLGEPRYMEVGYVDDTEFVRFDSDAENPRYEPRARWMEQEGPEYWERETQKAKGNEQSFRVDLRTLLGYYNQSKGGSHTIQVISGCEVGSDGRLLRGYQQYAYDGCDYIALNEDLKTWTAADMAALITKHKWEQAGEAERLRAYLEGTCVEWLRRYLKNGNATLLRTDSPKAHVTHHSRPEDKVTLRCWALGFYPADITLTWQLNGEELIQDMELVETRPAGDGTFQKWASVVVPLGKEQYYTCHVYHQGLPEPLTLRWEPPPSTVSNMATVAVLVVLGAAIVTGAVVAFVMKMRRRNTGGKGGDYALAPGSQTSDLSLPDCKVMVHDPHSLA
T1 sequence (P01887 21-119 partner): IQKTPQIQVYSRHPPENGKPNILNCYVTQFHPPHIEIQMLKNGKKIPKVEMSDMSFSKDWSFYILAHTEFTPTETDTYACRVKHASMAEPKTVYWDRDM
Method: (§1) 10^6 RMA-S cells were incubated overnight at 37° C. with each of the five predicted at the concentrations indicated. Cells were stained with antibodies for H-2K^b (Y-3; ATCC-HB176) or H-2D^b (28-14-8S; ATCC-HB27) followed by a goat anti-mouse-FITC second step and MHC class I surface expression was analyzed by flow cytometry. Specific MFI is the mean fluorescent intensity of the sample-mean fluorescent intensity of goat anti-mouse-FITC second step alone. Error bars represent the standard deviation of triplicate measurements.
(§2) The binding affinity of the five predicted peptides was tested. In a surface stabilization assay using the TAP1 deficient cell line RMA-S. RMA-S cells were pulsed with peptide, at the indicated concentrations, and incubated overnight. Cells were stained with antibodies for H-2K^b (Y-3; ATCC-HB176) or H-2D^b (28-14-8S; ATCC-HB27) followed by a fluorescent-labeled secondary antibody and MHC class I surface expression was analyzed by flow cytometry.

NFκB signaling = assay: NFκB-dependent secreted alkaline phosphatase reporter in RAW cells; format: cell-based, murine; conditions: transient transfection, IFNγ or LPS stimulation
Method: (§3) Function of the mutant and wt SHP-1 constructs was tested in RAW cells by transient transfection of SHP-1 vectors along with a reporter construct expressing a secreted alkaline phosphatase driven by either an NFκB or AP-1 dependent promoter. NFκB and AP-1 are major transcription factors stimulated by toll-like receptor (TLR) and cytokine signaling in immune system cells, and represent likely pathways of SHP-1 inhibition on cellular activation. Cells were transfected with the appropriate construct, reporter and then stimulated with interferon-γ (IFNγ) or bacterial lipopolysaccharide (LPS) as ligands for cytokine and TLR receptors respectively.

AP-1 signaling = assay: AP-1-dependent secreted alkaline phosphatase reporter in RAW cells; format: cell-based, murine; conditions: transient transfection, IFNγ or LPS stimulation
Method: as §3

H-2D^b = target: T2, H-2D^b (mouse, UniProt P01887 21-119; P01899 25-309); assay: RMA-S surface stabilization assay, flow cytometry of MHC class I surface expression
T2 construct: whole, on cells;extracellular; MHC class I on RMA-S cells, detected with antibody 28-14-8S (ATCC-HB27) in a surface stabilization assay; also called MHC class 1 molecule H-2D^b
T2 sequence (MHC heavy, looked up): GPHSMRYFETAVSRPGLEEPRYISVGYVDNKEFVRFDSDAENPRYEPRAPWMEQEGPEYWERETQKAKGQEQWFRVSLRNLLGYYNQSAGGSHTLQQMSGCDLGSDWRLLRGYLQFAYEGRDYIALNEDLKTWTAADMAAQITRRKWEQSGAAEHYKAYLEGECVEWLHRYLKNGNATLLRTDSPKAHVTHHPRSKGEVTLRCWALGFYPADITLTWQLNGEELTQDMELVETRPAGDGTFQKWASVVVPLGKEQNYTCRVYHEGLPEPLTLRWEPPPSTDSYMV
T2 sequence (b2m, looked up): T1 sequence (P01887 21-119 partner)
Method: as §1, with “10⁶” for “10^6”, “measurements. This is representative of 3 separate studies.” for “measurements.”
as §2, with “cytometry. […] STEAP₈₄₋₉₁ and STEAP₁₈₆₋₁₉₂ bound with an affinity near that of OVA₂₅₈₋₂₆₅, a well characterized strong binding H-2K^b epitope from chicken ovalbumin. […]” for “cytometry.”

H-2K^b [2] = target: T3, H-2K^b (mouse, UniProt P01887 21-119; P01901 22-305, limits assumed); assay: RMA-S surface stabilization assay, flow cytometry with antibody Y-3; reference peptide
T3 construct: whole, on cells;extracellular; MHC class I on RMA-S cells, detected with antibody Y-3 (ATCC-HB176) in a surface stabilization assay; also called MHC class 1 molecule H-2K^b
T3 sequence (MHC heavy, looked up): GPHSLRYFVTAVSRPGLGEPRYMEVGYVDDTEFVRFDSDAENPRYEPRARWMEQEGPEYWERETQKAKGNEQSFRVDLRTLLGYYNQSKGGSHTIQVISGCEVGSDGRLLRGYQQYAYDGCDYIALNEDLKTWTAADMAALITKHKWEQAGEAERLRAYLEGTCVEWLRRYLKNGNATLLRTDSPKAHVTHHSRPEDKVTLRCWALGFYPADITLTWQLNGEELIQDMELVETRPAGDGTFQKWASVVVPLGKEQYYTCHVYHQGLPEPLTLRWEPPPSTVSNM
T3 sequence (b2m, looked up): T1 sequence (P01887 21-119 partner)
Method: In Table 1, OVA Kb binding peptide […] was used as control for a known good binder.
as §1, with “10⁶” for “10^6”, “measurements. This is representative of 3 separate studies.” for “measurements.”
as §2, with “cytometry. […] STEAP₈₄₋₉₁ and STEAP₁₈₆₋₁₉₂ bound with an affinity near that of OVA₂₅₈₋₂₆₅, a well characterized strong binding H-2K^b epitope from chicken ovalbumin. […]” for “cytometry.”

LTFLYTLL [STEAP84-91]
relative binding affinity to H-2Kb (MHC class I surface expression) (H-2K^b [1]): bound with an affinity near that of OVA258-265

RSYRYKLL [STEAP186-192]
relative binding affinity to H-2Kb (MHC class I surface expression) (H-2K^b [1]): bound with an affinity near that of OVA258-265

dn-SHP-1: phosphatase dead dominant negative SHP-1 C453S mutant construct, HA-tagged (SEQ ID NO:8)
NFκB signaling (NFκB signaling): enhanced both NFκB and AP-1 signaling
AP-1 signaling (AP-1 signaling): enhanced both NFκB and AP-1 signaling

LLLGTVHAL (also called LLLGTVHAL) [STEAP262-270]
binding result (H-2D^b): no binding

SIINFEKL (also called OVA peptide) [OVA258-265]
binding result (H-2K^b [2]): binds
